# Results from publication PMC6440935, “Characterization and phase I study of CLR457, an orally bioavailable pan-class I PI3-kinase inhibitor” (Investigational New Drugs, 2018).
# Like-named read-outs stand apart in the source and are kept apart here.
# Conditions: drug-related
# Text: The primary objective was to define the maximum tolerated dose (MTD). Secondary objectives included assessments for safety, tolerability, pharmacokinetic (PK) profile, and preliminary antitumor activity.
# Patients had histologically documented locally advanced or metastatic solid tumors harboring an activating PIK3CA mutation or amplification, PTEN loss of function, c-MET activation, [16, 17] […] Other key inclusion criteria included age ≥ 18 years, Eastern Cooperative Oncology Group performance status (ECOG-PS) ≤2, adequate organ function, measurable or non-measurable disease as determined by Response Evaluation Criteria in Solid Tumors (RECIST) version 1.1.
# The starting dose for CLR457 was 5 mg QD, based on preclinical toxicology studies in accordance with ICH guidelines, and was administered at the same time each day ±2 h in a fasted state. Various doses were planned up to 300 mg QD until MTD determination.
# Safety was evaluated by incidence, nature, severity, and relatedness of adverse events (AEs), and graded according to National Cancer Institute - Common Terminology Criteria for Adverse Events (NCI CTCAE) v4.0.3. DLTs were defined as any hematologic or non-hematologic ≥ Grade 3 AE assessed as possibly related to CLR457 that occurred within the first cycle (28 days) of treatment. In addition, uncontrolled (> 14 days) Grade 2 rash or hyperglycemia were also considered DLTs. All AEs regardless of attribution were collected until 30 days following the last administration of treatment or study discontinuation/termination.
# Descriptive methods were used to tabulate toxicity and response endpoints in the clinical trial. All patients treated with CLR457 were included for safety. […] Dose escalation was guided by an adaptive Bayesian logistic regression model (BLRM) incorporating the escalation with overdose control (EWOC) principle. […] The study data (including DLTs during cycle 1 and other safety and PK data) were reviewed by the sponsor and trial investigators at each dose level. […] The Full Analysis Set (FAS) included all patients who received at least one dose of CLR457. Safety set included all patients who received at least one dose of CLR457 and had at least one valid post-baseline assessment. The Dose-determining set (DDS) included all patients from the safety set who either met the following minimum exposure criterion and had sufficient safety evaluations, or experienced a DLT during Cycle 1 (the first 28 days of dosing). The Pharmacokinetic analysis set included all patients who had at least one blood sample providing evaluable PK data.
smiles,measurement,setting,value
C[C@H]1OC(=O)N(c2cc(-c3cnc(N)nc3C(F)(F)F)nc(N3CCOCC3)n2)[C@H]1CO [CLR457],"Decreased neutrophil count, All Grade","40 mg, N = 5",0 n (%)
same,"Decreased neutrophil count, Grade ≥ 3","40 mg, N = 5",0 n (%)
same,"Dehydration, All Grade","40 mg, N = 5",0 n (%)
same,"Dehydration, Grade ≥ 3","40 mg, N = 5",0 n (%)
same,"Diarrhea, All Grade","40 mg, N = 5",3 (60.0) n (%)
same,"Diarrhea, Grade ≥ 3","40 mg, N = 5",0 n (%)
same,"Dry mouth, All Grade","40 mg, N = 5",0 n (%)
same,"Dry mouth, Grade ≥ 3","40 mg, N = 5",0 n (%)
same,"Dry skin, All Grade","40 mg, N = 5",0 n (%)
same,"Dry skin, Grade ≥ 3","40 mg, N = 5",0 n (%)
same,"Dysgeusia, All Grade","40 mg, N = 5",1 (20.0) n (%)
same,"Dysgeusia, Grade ≥ 3","40 mg, N = 5",0 n (%)
same,"Fatigue, All Grade","40 mg, N = 5",1 (20.0) n (%)
same,"Fatigue, Grade ≥ 3","40 mg, N = 5",0 n (%)
same,"Headache, All Grade","40 mg, N = 5",0 n (%)
same,"Headache, Grade ≥ 3","40 mg, N = 5",0 n (%)
same,"Hyperglycemia, All Grade","40 mg, N = 5",2 (40.0) n (%)
same,"Hyperglycemia, Grade ≥ 3","40 mg, N = 5",0 n (%)
same,"Hypomagnesaemia, All Grade","40 mg, N = 5",0 n (%)
same,"Hypomagnesaemia, Grade ≥ 3","40 mg, N = 5",0 n (%)
same,"Maculo-papular rash, All Grade","40 mg, N = 5",2 (40.0) n (%)
same,"Maculo-papular rash, Grade ≥ 3","40 mg, N = 5",2 (40.0) n (%)
same,"Nausea, All Grade","40 mg, N = 5",2 (40.0) n (%)
same,"Nausea, Grade ≥ 3","40 mg, N = 5",0 n (%)
same,"Pneumonitis, All Grade","40 mg, N = 5",0 n (%)
same,"Pneumonitis, Grade ≥ 3","40 mg, N = 5",0 n (%)
same,"Pruritus, All Grade","40 mg, N = 5",1 (20.0) n (%)
same,"Pruritus, Grade ≥ 3","40 mg, N = 5",0 n (%)
same,"Pyrexia, All Grade","40 mg, N = 5",0 n (%)
same,"Pyrexia, Grade ≥ 3","40 mg, N = 5",0 n (%)
same,"Rash, All Grade","40 mg, N = 5",0 n (%)
same,"Rash, Grade ≥ 3","40 mg, N = 5",0 n (%)
same,"Stomatitis, All Grade","40 mg, N = 5",3 (60.0) n (%)
same,"Stomatitis, Grade ≥ 3","40 mg, N = 5",0 n (%)
same,"Vomiting, All Grade","40 mg, N = 5",1 (20.0) n (%)
same,"Vomiting, Grade ≥ 3","40 mg, N = 5",0 n (%)
same,"Weight decreased, All Grade","40 mg, N = 5",1 (20.0) n (%)
same,"Weight decreased, Grade ≥ 3","40 mg, N = 5",0 n (%)
same,"Asthenia, Grade ≥ 3","70 mg, N = 6",0 n (%)
same,"Chills, All Grade","70 mg, N = 6",0 n (%)
same,"Chills, Grade ≥ 3","70 mg, N = 6",0 n (%)
same,"Colitis, All Grade","70 mg, N = 6",1 (16.7) n (%)
same,"Colitis, Grade ≥ 3","70 mg, N = 6",1 (16.7) n (%)
same,"Cough, All Grade","70 mg, N = 6",0 n (%)
same,"Cough, Grade ≥ 3","70 mg, N = 6",0 n (%)
same,"Decreased appetite, All Grade","70 mg, N = 6",2 (33.3) n (%)
same,"Decreased appetite, Grade ≥ 3","70 mg, N = 6",0 n (%)
same,"Decreased neutrophil count, All Grade","70 mg, N = 6",1 (16.7) n (%)
same,"Decreased neutrophil count, Grade ≥ 3","70 mg, N = 6",0 n (%)
same,"Dehydration, All Grade","70 mg, N = 6",1 (16.7) n (%)
same,"Dehydration, Grade ≥ 3","70 mg, N = 6",1 (16.7) n (%)
same,"Diarrhea, All Grade","70 mg, N = 6",4 (66.7) n (%)
same,"Diarrhea, Grade ≥ 3","70 mg, N = 6",1 (16.7) n (%)
same,"Dry mouth, All Grade","70 mg, N = 6",1 (16.7) n (%)
same,"Dry mouth, Grade ≥ 3","70 mg, N = 6",0 n (%)
same,"Dry skin, All Grade","70 mg, N = 6",1 (16.7) n (%)
same,"Dry skin, Grade ≥ 3","70 mg, N = 6",0 n (%)
same,"Dysgeusia, All Grade","70 mg, N = 6",0 n (%)
same,"Dysgeusia, Grade ≥ 3","70 mg, N = 6",0 n (%)
same,"Fatigue, All Grade","70 mg, N = 6",1 (16.7) n (%)
same,"Fatigue, Grade ≥ 3","70 mg, N = 6",0 n (%)
same,"Headache, All Grade","70 mg, N = 6",1 (16.7) n (%)
same,"Headache, Grade ≥ 3","70 mg, N = 6",0 n (%)
same,"Hyperglycemia, All Grade","70 mg, N = 6",1 (16.7) n (%)
same,"Hyperglycemia, Grade ≥ 3","70 mg, N = 6",0 n (%)
same,"Hypomagnesaemia, All Grade","70 mg, N = 6",1 (16.7) n (%)
same,"Hypomagnesaemia, Grade ≥ 3","70 mg, N = 6",0 n (%)
same,"Maculo-papular rash, All Grade","70 mg, N = 6",2 (33.3) n (%)
same,"Maculo-papular rash, Grade ≥ 3","70 mg, N = 6",1 (16.7) n (%)
same,"Nausea, All Grade","70 mg, N = 6",2 (33.3) n (%)
same,"Nausea, Grade ≥ 3","70 mg, N = 6",0 n (%)
same,"Pneumonitis, All Grade","70 mg, N = 6",0 n (%)
same,"Pneumonitis, Grade ≥ 3","70 mg, N = 6",0 n (%)
same,"Pruritus, All Grade","70 mg, N = 6",1 (16.7) n (%)
same,"Pruritus, Grade ≥ 3","70 mg, N = 6",0 n (%)
same,"Pyrexia, All Grade","70 mg, N = 6",1 (16.7) n (%)
same,"Pyrexia, Grade ≥ 3","70 mg, N = 6",0 n (%)
same,"Rash, All Grade","70 mg, N = 6",2 (33.3) n (%)
same,"Rash, Grade ≥ 3","70 mg, N = 6",1 (16.7) n (%)
same,"Stomatitis, All Grade","70 mg, N = 6",2 (33.3) n (%)
same,"Stomatitis, Grade ≥ 3","70 mg, N = 6",0 n (%)
same,"Vomiting, All Grade","70 mg, N = 6",2 (33.3) n (%)
same,"Vomiting, Grade ≥ 3","70 mg, N = 6",0 n (%)
same,"Weight decreased, All Grade","70 mg, N = 6",1 (16.7) n (%)
same,"Weight decreased, Grade ≥ 3","70 mg, N = 6",0 n (%)
same,"Asthenia, Grade ≥ 3","100 mg, N = 11",0 n (%)
same,"Chills, All Grade","100 mg, N = 11",2 (18.2) n (%)
same,"Chills, Grade ≥ 3","100 mg, N = 11",0 n (%)
same,"Colitis, All Grade","100 mg, N = 11",1 (9.1) n (%)
same,"Colitis, Grade ≥ 3","100 mg, N = 11",1 (9.1) n (%)
same,"Cough, All Grade","100 mg, N = 11",2 (18.2) n (%)
same,"Cough, Grade ≥ 3","100 mg, N = 11",0 n (%)
same,"Decreased appetite, All Grade","100 mg, N = 11",4 (36.4) n (%)
same,"Decreased appetite, Grade ≥ 3","100 mg, N = 11",0 n (%)
same,"Decreased neutrophil count, All Grade","100 mg, N = 11",1 (9.1) n (%)
same,"Decreased neutrophil count, Grade ≥ 3","100 mg, N = 11",1 (9.1) n (%)
